Reference: PubChem BioAssay AID2060888 (Molecular Pharmacology Branch, DTP, NCI, 2025)

System: 695427-040-R-J1-PDC complex spheroid viability
Experiment: Anticancer human tumor 695427-040-R-J1-PDC patient-derived colon adenocarcinoma cell line growth inhibition [RAS]
Conditions: for IC50: curve of first compound; for viability, T/C: stronger effect = lower value
How it was run: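 Tumour cells grown as complex spheroids with HUVEC endothelial cells and mesenchymal stem cells, treated with RAS pathway inhibitor combinations. Each agent spans half-log steps from near clinical Cmax, or 10 microM where Cmax is unknown.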

[1] = second compound 0.00316 µM, first compound 0.00316 µM
[2] = second compound 0.00316 µM, first compound 0.01 µM
[3] = second compound 0.00316 µM, first compound 0.0316 µM
[4] = second compound 0.00316 µM, first compound 0.1 µM
[5] = second compound 0.00316 µM, first compound 0.316 µM
[6] = second compound 0.00316 µM, first compound 1 µM
[7] = second compound 0.01 µM, first compound 0.00316 µM
[8] = second compound 0.01 µM, first compound 0.01 µM
[9] = second compound 0.01 µM, first compound 0.0316 µM
[10] = second compound 0.01 µM, first compound 0.1 µM
[11] = second compound 0.01 µM, first compound 0.316 µM
[12] = second compound 0.01 µM, first compound 1 µM
[13] = second compound 0.0316 µM, first compound 0.00316 µM
[14] = second compound 0.0316 µM, first compound 0.01 µM
[15] = second compound 0.0316 µM, first compound 0.0316 µM
[16] = second compound 0.0316 µM, first compound 0.1 µM
[17] = second compound 0.0316 µM, first compound 0.316 µM
[18] = second compound 0.0316 µM, first compound 1 µM
[19] = second compound 0.1 µM, first compound 0.00316 µM
[20] = second compound 0.1 µM, first compound 0.01 µM
[21] = second compound 0.1 µM, first compound 0.0316 µM
[22] = second compound 0.1 µM, first compound 0.1 µM
[23] = second compound 0.1 µM, first compound 0.316 µM
[24] = second compound 0.1 µM, first compound 1 µM
[25] = second compound 0.316 µM, first compound 0.00316 µM
[26] = second compound 0.316 µM, first compound 0.01 µM
[27] = second compound 0.316 µM, first compound 0.0316 µM
[28] = second compound 0.316 µM, first compound 0.1 µM
[29] = second compound 0.316 µM, first compound 0.316 µM
[30] = second compound 0.316 µM, first compound 1 µM
[31] = second compound 1 µM, first compound 0.00316 µM
[32] = second compound 1 µM, first compound 0.01 µM
[33] = second compound 1 µM, first compound 0.0316 µM
[34] = second compound 1 µM, first compound 0.1 µM
[35] = second compound 1 µM, first compound 0.316 µM
[36] = second compound 1 µM, first compound 1 µM
[37] = second compound 0.00316 µM, first compound 3.16 µM
[38] = second compound 0.00316 µM, first compound 10 µM
[39] = second compound 0.01 µM, first compound 3.16 µM
[40] = second compound 0.01 µM, first compound 10 µM
[41] = second compound 0.0316 µM, first compound 3.16 µM
[42] = second compound 0.0316 µM, first compound 10 µM
[43] = second compound 0.1 µM, first compound 3.16 µM
[44] = second compound 0.1 µM, first compound 10 µM
[45] = second compound 0.316 µM, first compound 3.16 µM
[46] = second compound 0.316 µM, first compound 10 µM
[47] = second compound 1 µM, first compound 3.16 µM
[48] = second compound 1 µM, first compound 10 µM
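Note: viability read after seven days of drug exposure.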
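Throughout, for viability, T/C: 100% = DMSO vehicle control viability.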

C=CC(=O)Nc1cc(Nc2nccc(-c3cn(C)c4ccccc34)n2)c(OC)cc1N(C)CCN(C)C + C=CC(=O)N1CCN(c2nc(OCC3CCCN3C)nc3c(F)c(-c4nc(N)cc(C)c4C(F)(F)F)c(Cl)cc23)C(C)C1
IC50 (second compound 0.00316 µM): 406 nM
IC50 (second compound 0.01 µM): 500 nM
IC50 (second compound 0.0316 µM): 403 nM
IC50 (second compound 0.1 µM): 429 nM
IC50 (second compound 0.316 µM): 457 nM
IC50 (second compound 1 µM): 429 nM
viability, T/C [1]: 96.5%
viability, T/C [2]: 94.1%
viability, T/C [3]: 86.2%
viability, T/C [4]: 76.5%
viability, T/C [5]: 54.6%
viability, T/C [6]: 31.4%
viability, T/C [7]: 102%
viability, T/C [8]: 94.5%
viability, T/C [9]: 83.7%
viability, T/C [10]: 72.2%
viability, T/C [11]: 57.5%
viability, T/C [12]: 39.2%
viability, T/C [13]: 112%
viability, T/C [14]: 99.1%
viability, T/C [15]: 83.8%
viability, T/C [16]: 71%
viability, T/C [17]: 58.2%
viability, T/C [18]: 32.7%
viability, T/C [19]: 94.7%
viability, T/C [20]: 100%
viability, T/C [21]: 88%
viability, T/C [22]: 76.4%
viability, T/C [23]: 56.7%
viability, T/C [24]: 33%
viability, T/C [25]: 105%
viability, T/C [26]: 94.7%
viability, T/C [27]: 84.6%
viability, T/C [28]: 80.3%
viability, T/C [29]: 60.1%
viability, T/C [30]: 30.2%
viability, T/C [31]: 90.3%
viability, T/C [32]: 95.5%
viability, T/C [33]: 88.5%
viability, T/C [34]: 80.7%
viability, T/C [35]: 58.1%
viability, T/C [36]: 27.6%

CC(C)NCC(C(=O)N1CCN(c2ncnc3c2C(C)CC3O)CC1)c1ccc(Cl)cc1 (stereo not given) + C=CC(=O)N1CCN(c2nc(OCC3CCCN3C)nc3c(F)c(-c4nc(N)cc(C)c4C(F)(F)F)c(Cl)cc23)C(C)C1
IC50 (second compound 0.00316 µM): > 10000 nM
IC50 (second compound 0.01 µM): > 10000 nM
IC50 (second compound 0.0316 µM): > 10000 nM
IC50 (second compound 0.1 µM): > 10000 nM
IC50 (second compound 0.316 µM): > 10000 nM
IC50 (second compound 1 µM): > 10000 nM
viability, T/C [3]: 98%
viability, T/C [4]: 95.2%
viability, T/C [5]: 88.2%
viability, T/C [6]: 84.7%
viability, T/C [37]: 93.6%
viability, T/C [38]: 108%
viability, T/C [9]: 107%
viability, T/C [10]: 102%
viability, T/C [11]: 88.5%
viability, T/C [12]: 93.3%
viability, T/C [39]: 101%
viability, T/C [40]: 111%
viability, T/C [15]: 109%
viability, T/C [16]: 91.1%
viability, T/C [17]: 91.7%
viability, T/C [18]: 87.8%
viability, T/C [41]: 102%
viability, T/C [42]: 106%
viability, T/C [21]: 98.7%
viability, T/C [22]: 91.5%
viability, T/C [23]: 81.3%
viability, T/C [24]: 83.6%
viability, T/C [43]: 105%
viability, T/C [44]: 111%
viability, T/C [27]: 107%
viability, T/C [28]: 88.6%
viability, T/C [29]: 91.4%
viability, T/C [30]: 95.2%
viability, T/C [45]: 102%
viability, T/C [46]: 107%
viability, T/C [33]: 91.7%
viability, T/C [34]: 94.6%
viability, T/C [35]: 89%
viability, T/C [36]: 79.7%
viability, T/C [47]: 81.5%
viability, T/C [48]: 89.5%

CC(C)n1nc(-c2ccc3oc(N)nc3c2)c2c(N)ncnc21 + C=CC(=O)N1CCN(c2nc(OCC3CCCN3C)nc3c(F)c(-c4nc(N)cc(C)c4C(F)(F)F)c(Cl)cc23)C(C)C1
IC50 (second compound 0.00316 µM): > 100 nM
IC50 (second compound 0.01 µM): > 100 nM
IC50 (second compound 0.0316 µM): > 100 nM
IC50 (second compound 0.1 µM): > 100 nM
IC50 (second compound 0.316 µM): > 100 nM
IC50 (second compound 1 µM): > 100 nM
viability, T/C (second compound 0.00316 µM, first compound 0.000316 µM): 98.5%
viability, T/C (second compound 0.00316 µM, first compound 0.001 µM): 96.5%
viability, T/C [1]: 82.4%
viability, T/C [2]: 80.2%
viability, T/C [3]: 72.2%
viability, T/C [4]: 61.8%
viability, T/C (second compound 0.01 µM, first compound 0.000316 µM): 106%
viability, T/C (second compound 0.01 µM, first compound 0.001 µM): 87.4%
viability, T/C [7]: 96.5%
viability, T/C [8]: 79.9%
viability, T/C [9]: 70.9%
viability, T/C [10]: 58.1%
viability, T/C (second compound 0.0316 µM, first compound 0.000316 µM): 101%
viability, T/C (second compound 0.0316 µM, first compound 0.001 µM): 89.8%
viability, T/C [13]: 86%
viability, T/C [14]: 75%
viability, T/C [15]: 76.5%
viability, T/C [16]: 65%
viability, T/C (second compound 0.1 µM, first compound 0.000316 µM): 103%
viability, T/C (second compound 0.1 µM, first compound 0.001 µM): 96.1%
viability, T/C [19]: 90%
viability, T/C [20]: 77%
viability, T/C [21]: 70.4%
viability, T/C [22]: 66.7%
viability, T/C (second compound 0.316 µM, first compound 0.000316 µM): 101%
viability, T/C (second compound 0.316 µM, first compound 0.001 µM): 88.6%
viability, T/C [25]: 88.8%
viability, T/C [26]: 84%
viability, T/C [27]: 69.9%
viability, T/C [28]: 61.6%
viability, T/C (second compound 1 µM, first compound 0.000316 µM): 98.4%
viability, T/C (second compound 1 µM, first compound 0.001 µM): 87.1%
viability, T/C [31]: 88.3%
viability, T/C [32]: 78.3%
viability, T/C [33]: 72.6%
viability, T/C [34]: 63.4%

CC(Nc1ccc2c(c1)OCCn1cc(N3C(=O)OCC3C(F)F)nc1-2)C(N)=O (stereo not given) + C=CC(=O)N1CCN(c2nc(OCC3CCCN3C)nc3c(F)c(-c4nc(N)cc(C)c4C(F)(F)F)c(Cl)cc23)C(C)C1
IC50 (second compound 0.00316 µM): 1470 nM
IC50 (second compound 0.01 µM): 838 nM
IC50 (second compound 0.0316 µM): 1580 nM
IC50 (second compound 0.1 µM): 2010 nM
IC50 (second compound 0.316 µM): 3130 nM
IC50 (second compound 1 µM): 2030 nM
viability, T/C [3]: 89.6%
viability, T/C [4]: 68.5%
viability, T/C [5]: 62.4%
viability, T/C [6]: 54.2%
viability, T/C [37]: 46.8%
viability, T/C [38]: 36.2%
viability, T/C [9]: 95.5%
viability, T/C [10]: 75.5%
viability, T/C [11]: 56.5%
viability, T/C [12]: 50.2%
viability, T/C [39]: 43.5%
viability, T/C [40]: 41.1%
viability, T/C [15]: 90.7%
viability, T/C [16]: 76.7%
viability, T/C [17]: 65.2%
viability, T/C [18]: 51.2%
viability, T/C [41]: 47%
viability, T/C [42]: 38.4%
viability, T/C [21]: 85.2%
viability, T/C [22]: 71%
viability, T/C [23]: 64.3%
viability, T/C [24]: 50.4%
viability, T/C [43]: 49.6%
viability, T/C [44]: 43.3%
viability, T/C [27]: 87.2%
viability, T/C [28]: 73.2%
viability, T/C [29]: 66.2%
viability, T/C [30]: 55.9%
viability, T/C [45]: 50.8%
viability, T/C [46]: 44.4%
viability, T/C [33]: 85.6%
viability, T/C [34]: 71%
viability, T/C [35]: 68%
viability, T/C [36]: 52%
viability, T/C [47]: 47.8%
viability, T/C [48]: 40.8%

O=C(c1ccc(F)c(F)c1Nc1ccc(I)cc1F)N1CC(O)([C@@H]2CCCCN2)C1 + C=CC(=O)N1CCN(c2nc(OCC3CCCN3C)nc3c(F)c(-c4nc(N)cc(C)c4C(F)(F)F)c(Cl)cc23)C(C)C1
IC50 (second compound 0.00316 µM): 37 nM
IC50 (second compound 0.01 µM): 39.8 nM
IC50 (second compound 0.0316 µM): 39.6 nM
IC50 (second compound 0.1 µM): 46.3 nM
IC50 (second compound 0.316 µM): 46.6 nM
IC50 (second compound 1 µM): 56.4 nM
viability, T/C [1]: 81.5%
viability, T/C [2]: 75.2%
viability, T/C [3]: 50.1%
viability, T/C [4]: 32.4%
viability, T/C [5]: 13.7%
viability, T/C [6]: 6.97%
viability, T/C [7]: 85.8%
viability, T/C [8]: 74.7%
viability, T/C [9]: 54.9%
viability, T/C [10]: 30.2%
viability, T/C [11]: 15.9%
viability, T/C [12]: 2.53%
viability, T/C [13]: 86.5%
viability, T/C [14]: 72%
viability, T/C [15]: 58%
viability, T/C [16]: 27.8%
viability, T/C [17]: 15.4%
viability, T/C [18]: 4.49%
viability, T/C [19]: 87.7%
viability, T/C [20]: 73.1%
viability, T/C [21]: 60.8%
viability, T/C [22]: 32.6%
viability, T/C [23]: 16.4%
viability, T/C [24]: 5.49%
viability, T/C [25]: 82.8%
viability, T/C [26]: 86.4%
viability, T/C [27]: 55.4%
viability, T/C [28]: 31.6%
viability, T/C [29]: 15.2%
viability, T/C [30]: 2.92%
viability, T/C [31]: 78.8%
viability, T/C [32]: 81.7%
viability, T/C [33]: 60.2%
viability, T/C [34]: 37.8%
viability, T/C [35]: 15.1%
viability, T/C [36]: 3.14%
